Reference: ChEMBL document CHEMBL3751779, “Amides of non-steroidal anti-inflammatory drugs with thiomorpholine can yield hypolipidemic agents with improved anti-inflammatory activity” (Bioorg Med Chem Lett, 2016)

Columns and labels:
Assay type in all cases: functional
Rattus norvegicus [1] = assay: Antihyperlipidemic activity in rat assessed as reduction of tyloxapol-induced plasma triglyceride level at 150 umol/kg, ip after 24 hrs relative to control
Rattus norvegicus [2] = assay: Anti-inflammatory activity in rat assessed as reduction of carrageenan-induced paw edema at 150 umol/kg, ip after 3.5 hrs relative to control
Rattus norvegicus [3] = assay: Antihyperlipidemic activity in rat assessed as reduction of tyloxapol-induced plasma low density lipoprotein cholesterol level at 150 umol/kg, ip after 24 hrs relative to control
Rattus norvegicus [4] = assay: Antihyperlipidemic activity in rat assessed as reduction of tyloxapol-induced plasma total cholesterol level at 150 umol/kg, ip after 24 hrs relative to control

| SMILES | inhibition in vivo at 150 µmol/kg (Rattus norvegicus [1]) [%] | inhibition in vivo at 150 µmol/kg (Rattus norvegicus [2]) [%] | inhibition in vivo at 150 µmol/kg (Rattus norvegicus [3]) [%] | inhibition in vivo at 150 µmol/kg (Rattus norvegicus [4]) [%] |
| --- | --- | --- | --- | --- |
| CC(C(=O)N1CCSCC1)c1cccc(C(=O)c2ccccc2)c1 (stereo unspecified) | 43 | 60 | 64.9 | 49 |
| O=C(Cc1ccccc1Nc1c(Cl)cccc1Cl)N1CCSCC1 | 46.4 | 40 | 70.8 | 44.1 |
| O=C(c1ccccc1Nc1cccc(C(F)(F)F)c1)N1CCSCC1 | 54.1 | 44 | 64.2 | 52.8 |
| O=C(CCCCC1CCSS1)N1CCSCC1 (stereo unspecified) | – | 59 | – | – |
| Cc1c(Cl)cccc1Nc1ccccc1C(=O)N1CCSCC1 | 80 | 45 | 70.5 | 65.9 |
| CC(C)Cc1ccc(C(C)C(=O)N2CCSCC2)cc1 (stereo unspecified) | 64.2 | 41 | 57.6 | 60.3 |
| COc1ccc2cc(C(C)C(=O)N3CCSCC3)ccc2c1 (stereo unspecified) | 61.3 | 62 | 81.4 | 57.8 |
| O=C(Cc1c[nH]c2ccccc12)N1CCSCC1 | – | 29 | – | – |
| Cc1cccc(Nc2ccccc2C(=O)N2CCSCC2)c1C | 81.5 | 46 | 71.3 | 80.5 |
| COc1ccc2c(c1)c(CC(=O)N1CCSCC1)c(C)n2C(=O)c1ccc(Cl)cc1 | 79.5 | 38 | 83 | 73 |
| O=C(O)Cc1ccccc1Nc1c(Cl)cccc1Cl [DICLOFENAC] | – | 37 | – | – |
| O=C(O)c1ccccc1Nc1cccc(C(F)(F)F)c1 [FLUFENAMIC ACID] | – | 19 | – | – |
| CC(C)Cc1ccc(C(C)C(=O)O)cc1 (stereo unspecified) [IBUPROFEN] | – | 36 | – | – |
| COc1ccc2c(c1)c(CC(=O)O)c(C)n2C(=O)c1ccc(Cl)cc1 [INDOMETHACIN] | – | 42 | – | – |
| Cc1cccc(Nc2ccccc2C(=O)O)c1C [MEFENAMIC ACID] | – | 44 | – | – |
| COc1ccc2cc([C@H](C)C(=O)O)ccc2c1 [NAPROXEN] | – | 11 | – | – |
| Cc1c(Cl)cccc1Nc1ccccc1C(=O)O [TOLFENAMIC ACID] | – | 24 | – | – |
